Source: PubChem BioAssay (NCI)
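How tested: cells in 96-well plates exposed to compound for 48 hours at five concentrations. GI50 marks 50% less growth. TGI marks complete inhibition of growth.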

Key:
Test in all cases: inhibition of tumour cell growth, NCI panel, 48 h
OVCAR-8 ovarian = test system: OVCAR-8 ovarian
COLO 205 colon = test system: COLO 205 colon
HCT-15 colon = test system: HCT-15 colon
T-47D breast = test system: T-47D breast
MOLT-4 leukemia = test system: MOLT-4 leukemia
NCI-H522 lung = test system: NCI-H522 lung
BT-549 breast = test system: BT-549 breast
SNB-75 CNS = test system: SNB-75 CNS
K-562 leukemia = test system: K-562 leukemia
ACHN renal = test system: ACHN renal
OVCAR-4 ovarian = test system: OVCAR-4 ovarian
KM12 colon = test system: KM12 colon
786-0 renal = test system: 786-0 renal
SR leukemia = test system: SR leukemia
A498 renal = test system: A498 renal
SK-MEL-28 melanoma = test system: SK-MEL-28 melanoma
OVCAR-3 ovarian = test system: OVCAR-3 ovarian
NCI-H460 lung = test system: NCI-H460 lung
SNB-19 CNS = test system: SNB-19 CNS
HOP-62 NSCLC = test system: HOP-62 NSCLC
LOX IMVI melanoma = test system: LOX IMVI melanoma
UACC-62 melanoma = test system: UACC-62 melanoma
HOP-92 NSCLC = test system: HOP-92 NSCLC
CCRF-CEM leukemia = test system: CCRF-CEM leukemia
TK-10 renal = test system: TK-10 renal
UO-31 renal = test system: UO-31 renal
EKVX NSCLC = test system: EKVX NSCLC
SF-268 CNS = test system: SF-268 CNS
IGROV1 ovarian = test system: IGROV1 ovarian
M14 melanoma = test system: M14 melanoma
RPMI-8226 leukemia = test system: RPMI-8226 leukemia
PC-3 prostate = test system: PC-3 prostate
HCT-116 colon = test system: HCT-116 colon
A549 NSCLC = test system: A549 NSCLC
NCI-H23 lung = test system: NCI-H23 lung
CAKI-1 renal = test system: CAKI-1 renal
RXF 393 renal = test system: RXF 393 renal
HS 578T breast = test system: HS 578T breast
U251 CNS = test system: U251 CNS
MDA-MB-231 breast = test system: MDA-MB-231 breast
MDA-MB-435 = test system: MDA-MB-435
HT29 colon = test system: HT29 colon
SW-620 colon = test system: SW-620 colon
SK-MEL-5 melanoma = test system: SK-MEL-5 melanoma
OVCAR-5 ovarian = test system: OVCAR-5 ovarian
DU-145 prostate = test system: DU-145 prostate
SF-295 CNS = test system: SF-295 CNS
HCC-2998 colon = test system: HCC-2998 colon
SK-MEL-2 melanoma = test system: SK-MEL-2 melanoma
UACC-257 melanoma = test system: UACC-257 melanoma
NCI/ADR-RES ovarian = test system: NCI/ADR-RES ovarian
MALME-3M melanoma = test system: MALME-3M melanoma
NCI-H226 lung = test system: NCI-H226 lung
HL-60(TB) leukemia = test system: HL-60(TB) leukemia
SN12C renal = test system: SN12C renal
SK-OV-3 ovarian = test system: SK-OV-3 ovarian
MCF7 breast = test system: MCF7 breast

`CC1=C2C(=C[C@@](C)(COS(C)(=O)=O)[C@@H]2O)C(=O)[C@](C)(O)C12CC2` was tested, and the GI50 (OVCAR-8 ovarian) was 1.74 µM, the TGI (OVCAR-8 ovarian) was 12 µM and the GI50 (COLO 205 colon) was 0.761 µM. For the same compound, the TGI (COLO 205 colon) was 2.84 µM, the GI50 (HCT-15 colon) was 0.443 µM and the TGI (HCT-15 colon) was 5.14 µM. The GI50 (T-47D breast) was 1.79 µM, the TGI (T-47D breast) was 7.78 µM and the GI50 (MOLT-4 leukemia) was 0.331 µM. The TGI (MOLT-4 leukemia) was > 100 µM, the GI50 (NCI-H522 lung) was 0.347 µM and the TGI (NCI-H522 lung) was 1.56 µM. For the same compound, the GI50 (BT-549 breast) was 0.632 µM, the TGI (BT-549 breast) was 2.47 µM and the GI50 (SNB-75 CNS) was 1.37 µM. For the same compound, the TGI (SNB-75 CNS) was 2.86 µM, the GI50 (K-562 leukemia) was 0.478 µM and the TGI (K-562 leukemia) was > 100 µM. It also gave a GI50 (ACHN renal) of 0.349 µM, a TGI (ACHN renal) of 3.55 µM and a GI50 (OVCAR-4 ovarian) of 1.45 µM. For the same compound, the TGI (OVCAR-4 ovarian) was 5.68 µM, the GI50 (KM12 colon) was 0.579 µM and the TGI (KM12 colon) was 7.13 µM. The GI50 (786-0 renal) was 1.96 µM, the TGI (786-0 renal) was 6.74 µM and the GI50 (SR leukemia) was 0.36 µM. For the same compound, the TGI (SR leukemia) was > 100 µM, the TGI (A498 renal) was 0.694 µM and the GI50 (SK-MEL-28 melanoma) was 0.678 µM. The TGI (SK-MEL-28 melanoma) was 2.5 µM, the GI50 (OVCAR-3 ovarian) was 0.544 µM and the TGI (OVCAR-3 ovarian) was 4.53 µM. It also gave a GI50 (NCI-H460 lung) of 0.216 µM, a TGI (NCI-H460 lung) of 0.517 µM and a GI50 (SNB-19 CNS) of 0.477 µM. For the same compound, the TGI (SNB-19 CNS) was 6.01 µM, the GI50 (HOP-62 NSCLC) was 0.371 µM and the TGI (HOP-62 NSCLC) was 2.04 µM. The GI50 (LOX IMVI melanoma) was 0.365 µM, the TGI (LOX IMVI melanoma) was 1.69 µM and the GI50 (UACC-62 melanoma) was 0.257 µM. The TGI (UACC-62 melanoma) was 0.731 µM, the GI50 (HOP-92 NSCLC) was 0.357 µM and the TGI (HOP-92 NSCLC) was 1.48 µM. For the same compound, the GI50 (CCRF-CEM leukemia) was 0.344 µM, the TGI (CCRF-CEM leukemia) was > 100 µM and the GI50 (TK-10 renal) was 2.22 µM. For the same compound, the TGI (TK-10 renal) was 7.14 µM, the GI50 (UO-31 renal) was 1.57 µM and the TGI (UO-31 renal) was 5.52 µM. The GI50 (EKVX NSCLC) was 1.66 µM, the TGI (EKVX NSCLC) was 5.22 µM and the GI50 (SF-268 CNS) was 0.333 µM. For the same compound, the TGI (SF-268 CNS) was 2.29 µM, the GI50 (IGROV1 ovarian) was 0.556 µM and the TGI (IGROV1 ovarian) was 5.67 µM. For the same compound, the GI50 (M14 melanoma) was 0.717 µM, the TGI (M14 melanoma) was 2.54 µM and the GI50 (RPMI-8226 leukemia) was 3.66 µM. For the same compound, the TGI (RPMI-8226 leukemia) was 52 µM, the GI50 (PC-3 prostate) was 0.624 µM and the TGI (PC-3 prostate) was 4.82 µM. For the same compound, the GI50 (HCT-116 colon) was 0.315 µM, the TGI (HCT-116 colon) was > 31.7 µM and the GI50 (A549 NSCLC) was 0.604 µM. For the same compound, the TGI (A549 NSCLC) was 6.92 µM, the GI50 (NCI-H23 lung) was 0.35 µM and the TGI (NCI-H23 lung) was 1.56 µM. It also gave a GI50 (CAKI-1 renal) of 0.406 µM, a TGI (CAKI-1 renal) of 5.36 µM and a GI50 (RXF 393 renal) of 0.335 µM. The TGI (RXF 393 renal) was 0.93 µM, the GI50 (HS 578T breast) was 1.77 µM and the TGI (HS 578T breast) was 4.78 µM. For the same compound, the GI50 (U251 CNS) was 0.286 µM, the TGI (U251 CNS) was 1.34 µM and the GI50 (MDA-MB-231 breast) was 1.34 µM. It also gave a TGI (MDA-MB-231 breast) of 5.99 µM, a GI50 (MDA-MB-435) of 0.757 µM and a TGI (MDA-MB-435) of 2.21 µM. For the same compound, the GI50 (HT29 colon) was 0.414 µM, the TGI (HT29 colon) was 28.6 µM and the GI50 (SW-620 colon) was 0.32 µM. The TGI (SW-620 colon) was > 100 µM, the GI50 (SK-MEL-5 melanoma) was 0.272 µM and the TGI (SK-MEL-5 melanoma) was 0.755 µM. For the same compound, the GI50 (OVCAR-5 ovarian) was 0.382 µM, the TGI (OVCAR-5 ovarian) was 3.06 µM and the GI50 (DU-145 prostate) was 0.366 µM. The TGI (DU-145 prostate) was 5.04 µM, the GI50 (SF-295 CNS) was 0.293 µM and the TGI (SF-295 CNS) was 1.28 µM. For the same compound, the GI50 (HCC-2998 colon) was 0.648 µM, the TGI (HCC-2998 colon) was 2.87 µM and the GI50 (SK-MEL-2 melanoma) was 0.289 µM. The TGI (SK-MEL-2 melanoma) was 0.793 µM, the GI50 (UACC-257 melanoma) was 2.39 µM and the TGI (UACC-257 melanoma) was 6.9 µM. The GI50 (NCI/ADR-RES ovarian) was 0.762 µM, the TGI (NCI/ADR-RES ovarian) was 5.97 µM and the GI50 (MALME-3M melanoma) was 0.459 µM. For the same compound, the TGI (MALME-3M melanoma) was 1.76 µM, the GI50 (NCI-H226 lung) was 2.12 µM and the TGI (NCI-H226 lung) was 6.17 µM. It also gave a GI50 (HL-60(TB) leukemia) of 0.466 µM, a TGI (HL-60(TB) leukemia) of 4.53 µM and a GI50 (SN12C renal) of 1.99 µM. The TGI (SN12C renal) was 10.7 µM, the GI50 (SK-OV-3 ovarian) was 0.447 µM and the TGI (SK-OV-3 ovarian) was 2.22 µM. For the same compound, the GI50 (MCF7 breast) was 0.238 µM and the TGI (MCF7 breast) was 2.55 µM.
